The text below walks through data of article PMC2808703 (Bioorganic & medicinal chemistry, 2009).

One data set has as its system Caco-2. The note with it: curated dataset; cited from earlier work.
Data set [1] concerns phospho-Akt in BxPC-3 pancreatic cancer cells. In words: Cell inhibition of phospho-Akt in BxPC-3 pancreatic cancer cells. It counts as cell-based. The note with it: for pIC50: Homo sapiens, BXPC-3, read-out: IC50 (Akt inhibition).
The test system is the same in data set [2]. The note with it: hits experimentally tested and confirmed active; cited from earlier work.

Molecules are shown by their SMILES. pIC50: −log10 of the molar value. Like-named read-outs stand apart in the source and are kept apart here.

In the case of `CN1CCN(CC(=O)N2c3ccccc3C(=O)Nc3cccnc32)CC1` [pirenzepine], in the data set with Caco-2, the “Caco-2 permeability, experimental” value is 0.437 ×10⁻⁶ cm/s. Consider `CCCCCCCCCC(=O)Nc1ccc(S(=O)(=O)Nc2nncs2)cc1` [Compound 13], for which the pIC50 in data set [1] is 5.00. Turning to `C[C@H]1[C@H](OC(=O)CCC(=O)O)O[C@@H]2O[C@@]3(C)CC[C@H]4[C@H](C)CC[C@@H]1[C@@]24OO3` [sodium artesunate], the “Caco-2 permeability, experimental” value in the data set on Caco-2 was 3.98 ×10⁻⁶ cm/s. As for `CC(C)Cc1ccc(C(C)C(=O)O)cc1` (stereo not shown) [ibuprofen], the “Caco-2 permeability, experimental” value in the data set with Caco-2 was 52.5 ×10⁻⁶ cm/s. For the molecule `CO/N=C(\C(=O)N[C@@H]1C(=O)N2C(C(=O)O)=C(CSc3nc(=O)c(O)nn3C)CS[C@H]12)c1csc(N)n1` [cerftriaxone], the “Caco-2 permeability, experimental” value in the data set on Caco-2 was 0.13 ×10⁻⁶ cm/s. `COCCOCCOCC(=O)Nc1ccc(S(=O)(=O)Nc2nncs2)cc1` [Compound 12]: the pIC50 in data set [1] is below 4.30. For the molecule `Cc1nnc(NS(=O)(=O)c2ccc(NS(=O)(=O)c3ccc4ccccc4c3)cc2)s1` [Compound 9], the negative logarithm of the IC50 (pIC50) in data set [2] was 4.70. Turning to `COc1cccc2c1C(=O)c1c(O)c3c(c(O)c1C2=O)C[C@@](O)(C(=O)CO)C[C@@H]3O[C@H]1C[C@H](N)[C@H](O)[C@H](C)O1` [doxorubicin], the “Caco-2 permeability, experimental” value in the data set with Caco-2 was 0.16 ×10⁻⁶ cm/s.

As to `CC(=O)Nc1ccc(S(=O)(=O)Nc2nncs2)cc1` [Compound 11], in data set [1] (BxPC-3 cells, phospho-Akt), the “IC50 (Akt inhibition)” value was “no activity”. The pIC50 in data set [1] is below 4.30.

Usually pIC50 stands for −log10 of the IC50, conventionally taken in molar units.
